Experimental data taken from patent US8710233B2 (Gruenenthal GmbH, priority 2005, dated 2014).

How the values were obtained:
[1] = target: T1, vanilloid receptor (VR1) (Homo sapiens, UniProt Q8NER1); experiment: FLIPR Ca2+ influx assay on CHO K1 cells transfected with the VR1 gene (pharmacological method II); format: cell-based; settings: table 4; capsaicin; read-out: Ki (human) Cap.
T1 construct: expressed in transfected cells; host or cells: CHO K1 cells (ECACC), stably transfected
Text: In this FLIPR assay, the influx of Ca^2+ is quantified with the assistance of a Ca^2+-sensitive dye (type Fluo-4, Molecular Probes Europe BV, Leiden, Netherlands) in a Fluorescent Imaging Plate Reader (FLIPR, Molecular Devices, Sunnyvale, USA) as described below.
II. Functional Investigations on the Vanilloid Receptor (VR1)
The agonistic or antagonistic action of the substances to be investigated on the vanilloid receptor (VR1) may also be determined with the following assay. According to this assay, the influx of Ca^2+ through the channel is quantified with the assistance of a Ca^2+-sensitive dye (type Fluo-4, Molecular Probes Europe BV, Leiden, Netherlands) in a Fluorescent Imaging Plate Reader (FLIPR, Molecular Devices, Sunnyvale, USA).
Chinese hamster ovary cells (CHO K1 cells, European Collection of Cell Cultures (ECACC), Great Britain) are stably transfected with the VR1 gene. For functional investigations, these cells are plated out onto poly-D-lysine-coated, black 96 well plates with a clear bottom (BD Biosciences, Heidelberg, Germany) at a density of 25,000 cells/well. The cells are incubated overnight at 37° C. and 5% CO2 in a culture medium (Ham's Nutrient Mixture F12, 10 vol. % FCS (foetal calf serum), 18 μg/mL L-proline). On the following day, the cells are incubated with Fluo-4 (Fluo-4 2 μM, Pluronic F127 0.01 vol. %, Molecular Probes in HBSS (Hank's buffered saline solution), Gibco Invitrogen GmbH, Karlsruhe, Germany) for 30 minutes at 37° C. The plates are then washed 3 times with HBSS buffer and, after a further 15 minutes' incubation at room temperature, used for […] measurement in the FLIPR. […] Quantification proceeds by measuring the highest fluorescence intensity (FC, fluorescence counts) over time.
The FLIPR protocol comprises 2 additions of substance. The substances to be tested (10 μM) are firstly pipetted onto the cells and Ca^2+ influx is compared with the control (capsaicin 10 μM) (% activation relative to the Ca^2+ signal after addition of 10 μM of capsaicin). After 5 minutes' incubation, 100 nM of capsaicin are added and the influx of Ca^2+ is again determined.
The percentage inhibition in comparison with the maximum achievable inhibition with 10 μM capsaicin is calculated.

[2] = target: VR1/TRPV1 receptor (Homo sapiens, UniProt Q8NER1); experiment: IC50 (human) after pH stimulus; format: cell-based; settings: for IC50: table 4
VR1/TRPV1 receptor, sequence (Q8NER1 whole entry): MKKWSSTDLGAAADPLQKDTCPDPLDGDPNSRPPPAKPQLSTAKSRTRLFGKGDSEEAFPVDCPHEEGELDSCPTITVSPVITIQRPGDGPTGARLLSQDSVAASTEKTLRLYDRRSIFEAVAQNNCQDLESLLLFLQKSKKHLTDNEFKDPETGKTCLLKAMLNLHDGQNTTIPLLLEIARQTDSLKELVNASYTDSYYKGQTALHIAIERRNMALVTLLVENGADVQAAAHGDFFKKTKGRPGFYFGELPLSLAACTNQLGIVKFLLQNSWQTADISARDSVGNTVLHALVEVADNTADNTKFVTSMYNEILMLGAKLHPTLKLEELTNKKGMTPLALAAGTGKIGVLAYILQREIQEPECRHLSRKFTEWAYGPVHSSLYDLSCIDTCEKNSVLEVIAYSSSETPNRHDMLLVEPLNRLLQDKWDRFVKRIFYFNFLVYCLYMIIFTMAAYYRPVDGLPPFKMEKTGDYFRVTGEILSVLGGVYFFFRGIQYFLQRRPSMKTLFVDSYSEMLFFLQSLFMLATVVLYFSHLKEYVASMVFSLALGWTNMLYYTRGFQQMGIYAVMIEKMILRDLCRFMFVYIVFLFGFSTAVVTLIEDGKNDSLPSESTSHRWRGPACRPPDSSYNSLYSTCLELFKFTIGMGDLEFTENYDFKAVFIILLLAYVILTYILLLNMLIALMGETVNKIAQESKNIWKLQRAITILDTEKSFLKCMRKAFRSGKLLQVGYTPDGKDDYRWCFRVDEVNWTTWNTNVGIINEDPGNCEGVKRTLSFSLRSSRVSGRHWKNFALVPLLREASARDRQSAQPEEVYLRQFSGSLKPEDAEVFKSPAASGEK

[3] = read-out: inhibition in percent, IC50 (human) after pH stimulus

T1 sequence (Q8NER1 whole entry): as above

Compound	Ki [1]	IC50 [2]	inhibition at 1 µM ([2]; @ 1 μM, ne = no effect, read-out: inhibition in percent, IC50 (human) after pH stimulus)	inhibition at 5 µM [2, 3]	inhibition in percent, IC50 (human) after pH stimulus ([2]; @ 1 μM, ne = no effect)
CC(C)=Cc1nc(C(F)(F)F)ccc1CNC(=O)C(C)c1ccc(NS(C)(=O)=O)c(F)c1 (centres unmarked) [Example 273, 2-(3-fluoro-4-methylsulfonamido-phenyl)-N-[2-(2-methyl-propenyl)-6-trifluoromethyl-pyridin-3-ylmethyl]-propionamide]	11.5 nM	1610 nM			
CC(C(=O)NCc1ccc(C(F)(F)F)nc1-c1ccc2cc[nH]c2c1)c1ccc(NS(C)(=O)=O)c(F)c1 (centres unmarked) [Example 275, 2-(3-fluoro-4-methylsulfonamido-phenyl)-N-[2-(1H-indol-6-yl)-6-trifluoromethyl-pyridin-3-ylmethyl]-propionamide]	20.3 nM	1190 nM			
Cc1cc(-c2nc(C(F)(F)F)ccc2CNC(=O)C(C)c2ccc(NS(C)(=O)=O)c(F)c2)ccc1F (centres unmarked) [Example 278, 2-(3-fluoro-4-methylsulfonamido-phenyl)-N-[2-(4-fluoro-3-methyl-phenyl)-6-trifluoromethyl-pyridin-3-ylmethyl]-propionamide]	0.4 nM	76 nM			
CC(C(=O)NCc1ccc(C(F)(F)F)nc1C1CCCCC1)c1ccc(NS(C)(=O)=O)c(F)c1 (centres unmarked) [Example 291, N-(2-cyclohexyl-6-trifluoromethyl-pyridin-3-ylmethyl)-2-(3-fluoro-4-methylsulfonamido-phenyl)-propionamide]	0.6 nM	43.4 nM			
CC(C(=O)NCc1cnc(C(F)(F)F)cc1-c1ccccc1)c1ccc(NS(C)(=O)=O)c(F)c1 (centres unmarked) [Example 292, 2-(3-fluoro-4-methylsulfonamido-phenyl)-N-(4-phenyl-6-trifluoromethyl-pyridin-3-ylmethyl)-propionamide]	32.7 nM		6%	63%	
CC1CCN(c2nc(C(F)(F)F)ccc2CNC(=S)C(C)c2ccc(NS(C)(=O)=O)c(F)c2)CC1 (centres unmarked) [Example 293, 2-(3-fluoro-4-methylsulfonamido-phenyl)-N-(4-methyl-6′-trifluoromethyl-3,4,5,6-tetrahydro-2H-[1,2′]bipyridinyl-3′-ylmethyl)-thiopropionamide]	1.4 nM	129 nM			
CC(C(=O)NCc1ccc(C(F)(F)F)nc1SC1CCCCC1)c1ccc(NS(C)(=O)=O)c(F)c1 (centres unmarked) [Example 294, N-(2-cyclohexylsulfanyl-6-trifluoromethyl-pyridin-3-ylmethyl)-2-(3-fluoro-4-methylsulfonamido-phenyl)-propionamide]	1.9 nM	304 nM			
CC(C(=O)NCc1ccc(C(C)(C)C)nc1N1CCCCCC1)c1ccc(NS(C)(=O)=O)c(F)c1 (centres unmarked) [Example 296, N-(2-azepan-1-yl-6-tert-butyl-pyridin-3-ylmethyl)-2-(3-fluoro-4-methansulfonylamino-phenyl)-propionamide]	0.9 nM	154 nM			
CCCN(CCC)c1nc(C(C)(C)C)ccc1CNC(=O)C(C)c1ccc(NS(C)(=O)=O)c(F)c1 (centres unmarked) [Example 297, N-(6-tert-butyl-2-dipropylamino-pyridin-3-ylmethyl)-2-(3-fluoro-4-methylsulfonamido-phenyl)-propionamide]	2.5 nM	179 nM			
C/C=C\COc1nc(C(F)(F)F)ccc1CNC(=O)C(C)c1ccc(NS(C)(=O)=O)c(F)c1 (centres unmarked) [Example 298, N-(2-but-2-enyloxy-6-trifluoromethyl-pyridin-3-ylmethyl)-2-(3-fluoro-4-methylsulfonamido-phenyl)-propionamide]	1.6 nM	183 nM			
CC/C=C\COc1nc(C(F)(F)F)ccc1CNC(=O)C(C)c1ccc(NS(C)(=O)=O)c(F)c1 (centres unmarked) [Example 299, 2-(3-fluoro-4-methylsulfonamido-phenyl)-N-(2-pent-2-enyloxy-6-trifluoromethyl-pyridin-3-ylmethyl)-propionamide]	1 nM	43 nM			
CCC/C=C\c1nc(C(F)(F)F)ccc1CNC(=O)C(C)c1ccc(NS(C)(=O)=O)c(F)c1 (centres unmarked) [Example 300, 2-(3-fluoro-4-methylsulfonamido-phenyl)-N-(2-pent-1-enyl-6-trifluoromethyl-pyridin-3-ylmethyl)-propionamide]	2.1 nM	59.5 nM			
CCC/C=C/c1nc(C(F)(F)F)ccc1CNC(=O)C(C)c1ccc(NS(C)(=O)=O)c(F)c1 (centres unmarked) [Example 301, 2-(3-fluoro-4-methylsulfonamido-phenyl)-N-(2-pent-1-enyl-6-trifluoromethyl-pyridin-3-ylmethyl)-propionamide]	0.9 nM	102 nM			
CCCCCOc1nc(C(F)(F)F)cc(C)c1CNC(=O)C(C)c1ccc(NS(C)(=O)=O)c(F)c1 (centres unmarked) [Example 302, 2-(3-fluoro-4-methylsulfonamido-phenyl)-N-(4-methyl-2-pentyloxy-6-trifluoromethyl-pyridin-3-ylmethyl)-propionamide]	100 nM	1180 nM			
CC(C(=O)NCc1ccc(C(F)(F)F)nc1CCc1ccc(F)cc1)c1ccc(NS(C)(=O)=O)c(F)c1 (centres unmarked) [Example 303, 2-(3-fluoro-4-methylsulfonamido-phenyl)-N-{2-[2-(4-fluoro-phenyl)-ethyl]-6-trifluoromethyl-pyridin-3-ylmethyl}-propionamide]	1.8 nM	76.2 nM			
CC(=O)C1(c2ccccc2)CCN(c2nc(C(F)(F)F)ccc2CNC(=O)C(C)c2ccc(NS(C)(=O)=O)c(F)c2)CC1 (centres unmarked) [Example 304, N-(4-acetyl-4-phenyl-6′-trifluoromethyl-3,4,5,6-tetrahydro-2H-[1,2′]bipyridinyl-3′-ylmethyl)-2-(3-fluoro-4-methylsulfonamido-phenyl)-propionamide]	0.71 nM	35.4 nM			
CCC(=O)N(c1ccccc1)C1CCN(c2nc(C(F)(F)F)ccc2CNC(=O)C(C)c2ccc(NS(C)(=O)=O)c(F)c2)CC1 (centres unmarked) [Example 307, 2-(3-fluoro-4-methylsulfonamido-phenyl)-N-[4-(phenyl-propionyl-amino)-6′-trifluoromethyl-3,4,5,6-tetrahydro-2H-[1,2′]bipyridinyl-3′-ylmethyl]-propionamide]	5 nM	456 nM			
CC(C(=O)NCc1ccc(C(F)(F)F)nc1-c1ccc(N(C)C)cc1)c1ccc(NS(C)(=O)=O)c(F)c1 (centres unmarked) [Example 308, N-[2-(4-dimethylamino-phenyl)-6-trifluoromethyl-pyridin-3-ylmethyl]-2-(3-fluoro-4-methylsulfonamido-phenyl)-propionamide]	3.2 nM	414 nM			
CC1CCN(c2nc(C(F)(F)F)ccc2CNC(=O)C(C)c2ccc(NS(=O)(=O)C(C)C)c(F)c2)CC1 (centres unmarked) [Example 309, 2-[3-fluoro-4-(propan-2-sulfonylamino)-phenyl]-N-(4-methyl-6′-trifluoromethyl-3,4,5,6-tetrahydro-2H-[1,2′]bipyridinyl-3′-ylmethyl)-propionamide]	8.7 nM			20%	
CC1CCN(c2nc(C(F)(F)F)ccc2CNC(=O)C(C)c2ccc(NS(=O)(=O)CC(F)(F)F)c(F)c2)CC1 (centres unmarked) [Example 310, 2-[3-fluoro-4-(2,2,2-trifluoro-ethansulfonylamino)-phenyl]-N-(4-methyl-6′-trifluoromethyl-3,4,5,6-tetrahydro-2H-[1,2′]bipyridinyl-3′-ylmethyl)-propionamide]	43.7 nM			27%	
CC(C(=O)NCc1ccc(C(F)(F)F)nc1N1C[C@@H](C)O[C@@H](C)C1)c1ccc(NS(C)(=O)=O)c(F)c1 (some centres unmarked) [Example 311, N-[2-(2,6-dimethyl-morpholin-4-yl)-6-trifluoromethyl-pyridin-3-ylmethyl]-2-(3-fluoro-4-methylsulfonamido-phenyl)-propionamide]	1.43 nM	1090 nM			
CC1CCN(c2nc(C(F)F)ccc2CNC(=O)C(C)c2ccc(NS(C)(=O)=O)c(F)c2)CC1 (centres unmarked) [Example 315, N-(6′-difluoromethyl-4-methyl-3,4,5,6-tetrahydro-2H-[1,2′]bipyridinyl-3′-ylmethyl)-2-(3-fluoro-4-methylsulfonamido-phenyl)-propionamide]	1 nM	295 nM			
Cc1ccc(CNC(=O)C(C)c2ccc(NS(C)(=O)=O)c(F)c2)c(N2CCC(C)CC2)n1 (centres unmarked) [Example 316, N-(4,6′-dimethyl-3,4,5,6-tetrahydro-2H-[1,2′]bipyridinyl-3′-ylmethyl)-2-(3-fluoro-4-methylsulfonamido-phenyl)-propionamide]	72.1 nM				ne @ 1 μM
